Assays:
spinal cord neurons = experiment: Oxidative stress-induced apoptosis (condensed and fragmented nuclei, Hoechst staining); format: cell-based
Excerpt: FIG. 3B is a control for FIG. 3A. FIG. 3C is a bar diagram summary of the percent of neurons with condensed fragmented nuclei after H2O2 treatment. The concentrations of H2O2 used are shown on the x-axis.
Central to the proposed therapeutic intervention is the belief that SCN undergo apoptosis and possibly necrosis under oxidative stress. […] Image pairs, obtained from H2O2-treated (FIG. 3A) and non-treated (FIG. 3B) SCN, are shown in both phase contrast and after Hoechst nuclear staining. Many of the neurons in FIG. 3A show condensed and fragmented nuclei (arrows) indicative of apoptotic cells. In contrast, control neurons in FIG. 3B show predominantly diffuse nuclear staining (arrows). […] This percentage increased to […] for 500 μM H2O2. […] These changes were concentration-dependent and increased by mtGSH depletion. […] In contrast, immunoreactivity to cytochrome C oxidase (COX), a marker in the inner mitochondrial membrane remains independent of the mitochondrial insults by H2O2 (FIG. 3E). The differential staining between Cyt C and COX affords a secondary method to assess whether a given neuron has undergone mitochondrial permeability transition (MPT).

[1] = test system: cultured neonatal rat ventricular myocytes; experiment: H2O2-induced depolarization of mitochondrial membrane potential (TMRM fluorescence) in myocytes; format: cell-based; conditions: for onset of H2O2-induced depolarization and loss of TMRM fluorescence: pretreatment 50 or 100 μM for 30 minutes
Description: TMRM is a lipophilic cation that partitions selectively into the negatively charged mitochondria Neonatal cultured myocytes (6 days in culture) were loaded with 10 nM TMRM for 60 minutes at 37° C. The myocytes were pretreated with either 50 or 100 μM Mito GSH or 100 μM non-targeted GSH for 30 minutes and then washed to remove the antioxidants from the solution in which myocytes were suspended. As a control, myocytes were not pretreated with any drug. TMRM was excited at 555 nm and fluorescence emission was detected at 590 nm. Fluorescence images were taken every 2 minutes. At the arrow, myocytes were subjected to oxidative stress by adding 50 μM H2O2. Plots were normalized to baseline, and are shown as F/Fo, where F is the emitted fluorescence at any given time and Fo is the baseline fluorescence before addition of H2O2. […] The traces were drawn from the mean values of 7-10 experiments.
TMRM was used as an indicator of mitochondrial membrane potential. The myocytes were pretreated with 50 μM Mito GSH for 30 minutes and then washed to remove the antioxidant from the solution in which myocytes were suspended. In control, myocytes were not pretreated with any drug. TMRM was excited at 555 nm and fluorescence emission was detected at 590 nm. Fluorescence images were taken every 2 minutes to avoid photobleaching and phototoxicity. Myocytes were subjected to oxidative stress by adding 50 μM H2O2.

Rat heart mitochondria [2] = experiment: Mitochondrial membrane potential by TPP+ sensitive electrode under rotenone/t-BuOOH oxidative stress; format: biochemical; conditions: pretreatment 5 mM at 4° C. for 30 minutes; 5 μM rotenone and 100 μM t-BuOOH; TPP+ signal
Description: Mitochondrial membrane potential was measured by a TPP+ (tetraphenyl phosphonium) sensitive electrode. Rat heart mitochondria (1 mg protein/100 μl) were transferred to a beaker (at the first arrow) containing 0.9 ml of 150 mM KCl, 5 mM Hepes, 6 μM TPP+ and 5 mM succinate buffer. […] At the second arrow, mitochondria were subjected to oxidative stress by adding 5 μM rotenone (Complex I inhibitor) and 100 μM tert-butylhydroperoxide (t-BuOOH) to the buffer.

brain striatal neurons = conditions: pretreatment 100 μM; 100 μM NMDA; DCF fluorescence
Description: Intracellular reactive oxygen species (ROS) were measured by using the redox-sensitive dye, dichlorohydrofluorescein (H2DCFDA). […] Cultured striatal neurons (10 days in culture) were loaded with 50 nM H2DCFDA for 25 min. The neurons were excited at 488 nm and the image was acquired at 515 nm wavelength. ROS production was induced by treating the neurons with 100 μM NMDA. An increase in DCFDA fluorescence by NMDA treatment reflected an increased production of ROS or oxidative stress. […] Plots were normalized to baseline, and are shown as F/Fo, where F is the emitted fluorescence at any given time and Fo is the baseline fluorescence before addition of NMDA. […] The traces were drawn from the mean values of 3 experiments.

Rat heart mitochondria [3] = experiment: Mitochondrial membrane potential by safranine fluorescence under rotenone/t-BuOOH oxidative stress; format: biochemical; conditions: pretreatment 5 mM for 30 minutes; 5 μM rotenone and 100 μM t-BuOOH
Description: Mitochondrial membrane potential was measured by safranine. Safranine is a positively charged dye that accumulates in mitochondria on establishment of an electrical potential across the mitochondrial inner membrane. However, its fluorescence is quenched by its accumulation in mitochondria in response to mitochondrial membrane potential. Rat heart mitochondria (0.2 mg protein/200 μl) were transferred to a well containing 0.3 ml of 150 mM KCl, 5 mM Hepes, 15 μM safranine, 5 mM succinate buffer, 5 μM rotenone and 100 μM t-BuOOH. The mitochondria were placed in a multiplate reader. Fluorescence measurements were made with excitation and emission wavelengths of 485 and 585 nm respectively. Rotenone and t-BuOOH induced mitochondrial membrane potential resulting in a release of intramitochondrial safranine indicated by an increase in fluorescence signal.

[4] = test system: Male Sprague-Dawley rat hearts; conditions: 50 μM for 10 min prior to ischemia
Description: Male Sprague-Dawley rat hearts were retrograde (Langendorff) perfused with oxygenated Krebs Henseleit (KH) buffer in constant flow mode (12 mL/min/gram wet weight). Hearts were not electrically stimulated, and beat spontaneously at approximately 280 bpm. Left-ventricular pressure (LVP) was measured by a balloon inserted in the left ventricle, linked to a pressure transducer with digital recording at 500 Hz. […] Following an equilibration period of approximately 25 mm., global normothermic ischemia was imposed for 25 mm., followed by reperfusion for 30 mm as indicated by the arrows on the traces. For mNAC treatment, the drug was dissolved in KH buffer and infused via a port just above the aortic perfusion cannula, at a final concentration of 50 μM, for 10 min. prior to the onset of ischemia.
The ability of mitochondrially targeted N-acetylcysteine (mNAC) to improve post-ischemic recovery in rat heart was assessed. Male Sprague-Dawley rat hearts were retrograde (Langendorff) perfused with oxygenated Krebs Henseleit (KH) buffer in constant flow mode (12 mL/min/gram wet weight). Hearts were not electrically stimulated, and beat spontaneously at approximately 280 beats per minute. Left-ventricular pressure (LVP) was measured by a balloon inserted in the left ventricle, linked to a pressure transducer with digital recording at 500 Hz. […]

C=CC(O)CC(=O)O (stereo not shown) [3-HP, 3-hydroxy-4-pentenoate]
cells with condensed and fragmented nuclei (spinal cord neurons; mtGSH depletion by 3-HP prior to 250 μM H2O2 treatment): 70%

N[C@@H](CCC(=O)N[C@@H](CS)C(=O)NCC(=O)O)C(=O)O [GSH, glutathione, reference compound]
time for onset of H2O2-induced depolarization (versus control) ([1]; pretreatment 100 μM): did not significantly increase the time for onset of H2O2-induced depolarization

OO [H2O2]
neurons with condensed and fragmented nuclei (spinal cord neurons; 250 μM H2O2): ~42%

C[N+](C)(C)CCOC(=O)CNC(=O)[C@H](CS)NC(=O)CC[C@H](N)C(=O)O.[Cl-] [Mito GSH, Glutathione choline ester chloride]
oxidative stress-induced depolarization of mitochondrial membrane potential (Rat heart mitochondria [2]): prevented the oxidative stress-induced depolarization significantly
time for onset of H2O2-induced depolarization (versus control) ([1]; pretreatment 50 μM): significantly enhanced the time for onset of H2O2-induced depolarization
time to which TMRM fluorescence persisted after H2O2 treatment ([1]; pretreatment 50 μM for 30 minutes, 50 μM H2O2, control invisible at 32 minutes): 50 min
time for onset of H2O2-induced depolarization (versus control) ([1]; pretreatment 100 μM): significantly enhanced the time for onset of H2O2-induced depolarization
Time for onset of H2O2-induced depolarization ([1]; pretreatment 100 μM, control 25±3.2 min): 53 ± 3.6 min
onset of H2O2-induced depolarization and loss of TMRM fluorescence ([1]; 50 μM H2O2): delayed onset of H2O2-induced depolarization and loss of TMRM fluorescence
NMDA-induced increase in ROS production (brain striatal neurons): prevented NMDA-induced increase in ROS production

CC(=O)N[C@@H](CSC(C)=O)C(=O)OCC[N+](C)(C)C [N,S-acetyl cysteine choline ester, S,N-acetyl-L-cysteine choline ester]
release of intramitochondrial safranine (depolarization of mitochondrial membrane potential) (Rat heart mitochondria [3]): diminished the release of intramitochondrial safaranine

C[N+](C)(C)CCOC(=O)[C@@H](N)CS.[Cl-] [cysteine choline ester, [2-(2-Amino-3-mercapto-L-propionyloxy)-ethyl]-trimethyl-ammonium chloride]
oxidative stress-induced depolarization of mitochondrial membrane potential (Rat heart mitochondria [2]): prevented the oxidative stress-induced depolarization significantly

CC(=O)N[C@@H](CS)C(=O)OCC[N+](C)(C)C [mNAC, N-acetyl-L-cysteine choline ester]
oxidative stress-induced depolarization of mitochondrial membrane potential (Rat heart mitochondria [2]): prevented the oxidative stress-induced depolarization significantly
onset of H2O2-induced depolarization and loss of TMRM fluorescence ([1]; 50 μM H2O2): delayed onset of H2O2-induced depolarization and loss of fluorescence
onset of ischemic contracture [4]: appeared to delay the onset of ischemic contracture
overall recovery of LV developed pressure (systolic minus diastolic) ([4]; 25 min global ischemia, 30 min reperfusion, control 4.1%): 15.7%
